Laboratory results: US4435583A, “2-Halo-substituted monic acid A useful as antibacterial compounds” (Beecham Group p.l.c., priority 1981, dated 1984)
Values after ≈ are worked out from the molar mass of the structure shown.

Key:
Assay type in all cases: cell-based
[1] = test system: M. suipneumoniae LABER; experiment: In vitro anti-mycoplasmal MIC; conditions: Mesomycoplasma hyopneumoniae, 144 h, Friis broth, 0.9% agarose, 6 days, 37° C.
[2] = test system: M. suipneumoniae PW/C/210; experiment: In vitro anti-mycoplasmal MIC; conditions: Mesomycoplasma hyopneumoniae, 144 h, Friis broth, 0.9% agarose, 6 days, 37° C.
[3] = test system: M. gallisepticum S6; experiment: In vitro anti-mycoplasmal MIC; conditions: Mycoplasmoides gallisepticum, 144 h, Friis broth, 0.9% agarose, 6 days, 37° C., read-out: MIC
[4] = test system: M. pneumoniae ATCC 15492; experiment: In vitro anti-mycoplasmal MIC; conditions: Mycoplasmoides pneumoniae, ATCC15492, 144 h, Friis broth, 0.9% agarose, 6 days, 37° C., read-out: MIC
[5] = test system: M. hyosynoviae ATCC 25591; experiment: In vitro anti-mycoplasmal MIC; conditions: 144 h, Friis broth, 0.9% agarose, 6 days, 37° C.
[6] = test system: M. bovis NCTC 10131; experiment: microbe, parasite or virus in culture; conditions: Mycobacterium tuberculosis variant bovis, NCTC10131, 144 h
[7] = test system: M. suipneumoniae J2206/183b; experiment: In vitro anti-mycoplasmal MIC; conditions: Friis broth, 0.9% agarose, 6 days, 37° C.
[8] = test system: M. suipneumoniae ATCC 25095; experiment: In vitro anti-mycoplasmal MIC; conditions: Friis broth, 0.9% agarose, 6 days, 37° C.
[9] = test system: Strep. 2788-B; experiment: MIC against human bacteria; conditions: nutrient agar, 5% chocolated horse blood, 18 hours, 37° C.
Method: (§1) The values were determined by serial dilutions in nutrient agar with 5% chocolated horse blood after incubations for 18 hours at 37° C.

[10] = test system: Staph. aureus W2827; experiment: MIC against human bacteria; conditions: nutrient agar, 5% chocolated horse blood, 18 hours, 37° C.
Method: as §1

[11] = test system: Haemophilus influenzae Wy21; experiment: MIC against human bacteria; conditions: Haemophilus influenzae, WY21, 18 h, nutrient agar, 5% chocolated horse blood, 37° C.
Method: as §1

[12] = test system: P. mirabilis 889; experiment: MIC against human bacteria; conditions: Proteus mirabilis, nutrient agar, 5% chocolated horse blood, 18 hours, 37° C., read-out: MIC
Method: as §1

[13] = test system: M. suipneumoniae NB12; experiment: In vitro anti-mycoplasmal MIC; conditions: Friis broth, 0.9% agarose, 6 days, 37° C.
[14] = test system: M. suipneumoniae Str.11; experiment: In vitro anti-mycoplasmal MIC; conditions: Friis broth, 0.9% agarose, 6 days, 37° C.
[15] = test system: M. suipneumoniae MS16; experiment: In vitro anti-mycoplasmal MIC; conditions: Mesomycoplasma hyopneumoniae, MS16, 144 h, Friis broth, 0.9% agarose, 6 days, 37° C.
[16] = test system: M. hyorhinis ATCC 25021; experiment: In vitro anti-mycoplasmal MIC; conditions: Mesomycoplasma hyorhinis, ATCC25021, 144 h, Friis broth, 0.9% agarose, 6 days, 37° C.
[17] = test system: M. suipneumoniae TAM 6N; experiment: In vitro anti-mycoplasmal MIC; conditions: Friis broth, 0.9% agarose, 6 days, 37° C.
[18] = test system: M. suipneumoniae NCTC 10110; experiment: In vitro anti-mycoplasmal MIC; conditions: Friis broth, 0.9% agarose, 6 days, 37° C.
[19] = test system: M. suipneumoniae JF435; experiment: In vitro anti-mycoplasmal MIC; conditions: Friis broth, 0.9% agarose, 6 days, 37° C.
[20] = test system: M. suipneumoniae UCD 1; experiment: In vitro anti-mycoplasmal MIC; conditions: Friis broth, 0.9% agarose, 6 days, 37° C.
[21] = test system: Staph. aureus 152; experiment: MIC against veterinary bacteria; conditions: Diagnostic Sensitivity Test Agar, 18 hours, 37° C.
Method: (§2) The values were determined using a two fold serial dilutions in Diagnostic Sensitivity Test Agar with an inoculum of 10^4 organisms and incubation for 18 hours at 37° C.

[22] = test system: Strep. suis (group D) SPS11; experiment: MIC against veterinary bacteria; conditions: Diagnostic Sensitivity Test Agar, 18 hours, 37° C.
Method: as §2

[23] = test system: S. dublin S7; experiment: MIC against veterinary bacteria; conditions: Salmonella enterica, Diagnostic Sensitivity Test Agar, 18 hours, 37° C., read-out: MIC
Method: as §2

[24] = test system: E. coli NCTC 10418; experiment: MIC against veterinary bacteria; conditions: Escherichia coli, NCTC10418, Diagnostic Sensitivity Test Agar, 18 hours, 37° C., read-out: MIC
Method: as §2

[25] = test system: Past. multocida PA1; experiment: MIC against veterinary bacteria; conditions: Diagnostic Sensitivity Test Agar, 18 hours, 37° C.
Method: as §2

[26] = test system: Corynebacterium pyogenes CY1; experiment: MIC against veterinary bacteria; conditions: Rhodococcus (subgen. Prescottella) equi, Diagnostic Sensitivity Test Agar, 18 hours, 37° C., read-out: MIC
Method: as §2

[27] = test system: Staph. aureus Oxford; experiment: MIC against veterinary bacteria; conditions: Diagnostic Sensitivity Test Agar, 18 hours, 37° C.
Method: as §2

[28] = test system: Bord. bronchiseptica B08; experiment: MIC against veterinary bacteria; conditions: Bordetella bronchiseptica, B08, 18 h, Diagnostic Sensitivity Test Agar, 37° C., read-out: MIC
Method: as §2

[29] = test system: Strep. agalactiae SPA1; experiment: MIC against veterinary bacteria; conditions: Diagnostic Sensitivity Test Agar, 18 hours, 37° C.
Method: as §2

[30] = test system: Staph. aureus B4; experiment: MIC against veterinary bacteria; conditions: Diagnostic Sensitivity Test Agar, 18 hours, 37° C.
Method: as §2

[31] = test system: Bord. bronchiseptica B09; experiment: MIC against veterinary bacteria; conditions: Diagnostic Sensitivity Test Agar, 18 hours, 37° C.
Method: as §2

[32] = test system: Strep. dysgalactiae SPD1; experiment: MIC against veterinary bacteria; conditions: Diagnostic Sensitivity Test Agar, 18 hours, 37° C.
Method: as §2

[33] = test system: Past. haemolytica PA5; experiment: MIC against veterinary bacteria; conditions: Diagnostic Sensitivity Test Agar, 18 hours, 37° C.
Method: as §2

[34] = test system: Past. multocida PA2; experiment: MIC against veterinary bacteria; conditions: Diagnostic Sensitivity Test Agar, 18 hours, 37° C.
Method: as §2

[35] = test system: Erysipelothrix rhusiopathiae NCTC 8163; experiment: MIC against veterinary bacteria; conditions: NCTC8163, Diagnostic Sensitivity Test Agar, 18 hours, 37° C., read-out: MIC
Method: as §2

[36] = test system: Strep. uberis SPU1; experiment: MIC against veterinary bacteria; conditions: Strep. uberis SPU1; Diagnostic Sensitivity Test Agar; 18 hours, 37° C.
Method: as §2

[37] = test system: S. typhimurium S18; experiment: MIC against veterinary bacteria; conditions: Salmonella enterica, Diagnostic Sensitivity Test Agar, 18 hours, 37° C., read-out: MIC
Method: as §2

[38] = test system: E. coli E1; experiment: MIC against veterinary bacteria; conditions: Escherichia coli, Diagnostic Sensitivity Test Agar, 18 hours, 37° C., read-out: MIC
Method: as §2

[39] = test system: M. dispar NCTC 10125; experiment: In vitro anti-mycoplasmal MIC; conditions: 144 h, Friis broth, 0.9% agarose, 6 days, 37° C.

CCOC(=O)C(F)=C(C)CC1OCC(CC2OC2C(C)C(C)O)C(O)C1O [Example 1, Ethyl-4-[5S-(2S,3S-epoxy-5S-hydroxy-4S-methylhexyl)-3R, 4R-dihydroxytetrahydropyran-2S-yl]-2-fluoro-3-methylbut-2(Z)-enoate]
MIC [1]: 0.25 µg/mL (≈ 0.64 µM) | MIC [2]: 0.25 µg/mL (≈ 0.64 µM) | MIC [3]: 10 µg/mL (≈ 25.6 µM) | MIC [4]: 5 µg/mL (≈ 12.8 µM) | MIC [5]: 0.25 µg/mL (≈ 0.64 µM) | MIC [6]: 0.025 µg/mL (≈ 0.064 µM) | MIC [7]: 0.5 µg/mL (≈ 1.28 µM) | MIC [8]: 0.5 µg/mL (≈ 1.28 µM) | MIC [9]: 10.0 µg/mL (≈ 25.6 µM) | MIC [10]: 1.0 µg/mL (≈ 2.56 µM) | MIC [11]: 0.25 µg/mL (≈ 0.64 µM) | MIC [12]: > 100 µg/mL | MIC [13]: 0.5 µg/mL (≈ 1.28 µM) | MIC [14]: 0.5 µg/mL (≈ 1.28 µM) | MIC [15]: 0.25 µg/mL (≈ 0.64 µM) | MIC [16]: 0.25 µg/mL (≈ 0.64 µM) | MIC [17]: 0.5 µg/mL (≈ 1.28 µM) | MIC [18]: 0.5 µg/mL (≈ 1.28 µM) | MIC [19]: 0.5 µg/mL (≈ 1.28 µM) | MIC [20]: 0.5 µg/mL (≈ 1.28 µM) | MIC [21]: 0.63 µg/mL (≈ 1.61 µM) | MIC [22]: 20.0 µg/mL (≈ 51.2 µM) | MIC [23]: > 80 µg/mL | MIC [24]: > 80 µg/mL | MIC [25]: 1.3 µg/mL (≈ 3.33 µM) | MIC [26]: 80 µg/mL (≈ 205 µM) | MIC [27]: 0.63 µg/mL (≈ 1.61 µM) | MIC [28]: 80 µg/mL (≈ 205 µM) | MIC [29]: 2.5 µg/mL (≈ 6.4 µM) | MIC [30]: 0.63 µg/mL (≈ 1.61 µM) | MIC [31]: 20.0 µg/mL (≈ 51.2 µM) | MIC [32]: 1.3 µg/mL (≈ 3.33 µM) | MIC [33]: 5.0 µg/mL (≈ 12.8 µM) | MIC [34]: 0.63 µg/mL (≈ 1.61 µM) | MIC [35]: 80 µg/mL (≈ 205 µM) | MIC [36]: 0.63 µg/mL (≈ 1.61 µM) | MIC [37]: > 80 µg/mL | MIC [38]: > 80 µg/mL | MIC [39]: 0.1 µg/mL (≈ 0.256 µM)
